According to paper PMC12689647, “Evaluation of bromadiolone combined with ciprofloxacin, vitamin D, aspirin, and cinnamon as an apoptosis-mediated rodenticide strategy” (Scientific Reports, 2025):
Like-named read-outs stand apart in the source and are kept apart here.

Tests used:
[1] = tested on: male wild rats of Rattus norvegicus; assay type: in vivo; conditions: oral; for Mortality% / Dead: one week; for Linear probit / Linear response %: probit fit; for Dead: 8 treated
Procedure: An approximate LD₅₀ was initially determined as a pilot study using the staircase method. Seventy adult male rats weighing 150–200 g were randomized and divided into ten groups (n = 10 × 7). Group I served as the control, while groups II, III, IV, V, VI, VII, VIII, IX, and X were treated orally with the following doses of bromadiolone, respectively: 0.3, 0.6, 0.9, 1.1, 1.2, 1.4, 1.8, 2.2, and 2.8 mg/kg b.w. The animals were observed during the first 2 h and then at 6 and 24 h for any toxic symptoms. Time to death and mortality were recorded over four days following administration. After one week, the LD₅₀ value was determined using probit analysis as described in[27].

male wild rats = experiment: Serum measurements (AST, ALT, Ca2+, RBCs, Hgb, PT); assay type: in vivo, Rattus norvegicus; conditions: oral, 21 days
Procedure: (§1) Adult male rats (n = 7 × 9 = 63), weighing 150–200 g, were randomized and divided into seven groups. Group I served as the control. Group II received the vehicle control (0.1 ml/100 g ethanol). Group III was treated with bromadiolone (B) at ½ LD₅₀ (0.8 mg/kg)[28]. Group IV received bromadiolone (0.8 mg/kg) + ciprofloxacin (Anti.20 mg/kg)[29]. Group V received bromadiolone (0.8 mg/kg) + ciprofloxacin (20 mg/kg) + vitamin D (Vit. D 35 mg/kg)[30]. Group VI received bromadiolone (0.8 mg/kg) + ciprofloxacin (20 mg/kg) + vitamin D (35 mg/kg) + cinnamon (Cin. 2 g/kg)[31]. Group VII received bromadiolone (0.8 mg/kg) + ciprofloxacin (20 mg/kg) + vitamin D (35 mg/kg) + aspirin (A. 150 mg/kg)[32]. All doses were administered orally to wild rats over 21 days. The chemical we used for the euthanizing process: rats were narcotized by Ketamine + xylazine injection (IP) and then sacrificed by slaughtering.
Determination of ionized calcium, RBC count, Hb, and prothrombin time (PT) was conducted at a private biochemical laboratory in Assiut, Egypt, using a Genuri KT-6400 automatic hematology analyzer (China). ALT and AST activities in blood plasma were measured using specific kits (Boehringer Mannheim, Mannheim, Germany) according to the manufacturer’s instructions. […]. The concentration of reduced glutathione (GSH) was estimated based on[37] and measured using spectrophotometry.

liver of male wild rats = experiment: Semi-quantitative scoring of histopathological lesions in the liver (H&E); assay type: in vivo, Rattus norvegicus; parameters: key to Fatty deposition / Hemorrhage / Thickening of blood vessels / Loss of liver architecture: (-) Absent lesion; (+) Slight (< 25%); (++) Moderate (from 25–50%); (+++) Severe (> 50%); conditions: liver H&E lesion score; oral, 21 days
Procedure: as §1
. Hematoxylin, eosin stains was applied to 5 μm-thick paraffin Sect[38]. Four categories were established based on the histological evaluation of nine liver tissue lesions: (−) no lesion, (+) mild (less than 25%), (++) moderate (between 25% and 50%), and (+++) severe (more than 50%)[39]. We examined about 5 photos for each rat in each groups; 5 × 63 = 315 photos for assessments. Examination and photography were conducted using a digital camera (ToupTek ToupView, copyright 2019, version x86, compatible with Windows XP/Vista/7/8/10, China) and a light microscope (Olympus CX31, Japan).

[2] = male wild rats, probit analysis software

O=c1oc2ccccc2c(O)c1C(CC(O)c1ccc(-c2ccc(Br)cc2)cc1)c1ccccc1 (stereo not drawn) [Bromadiolone]
Mortality% ([1]; dose 0.3 mg/kg b.w.): 12.5%
Observed response % ([1]; dose 0.3 mg/kg b.w., probit analysis): 14.286%
Linear probit ([1]; dose 0.3 mg/kg b.w.): 3.6051
Linear response % ([1]; dose 0.3 mg/kg b.w.): 8.159%
Mortality% ([1]; dose 0.6 mg/kg b.w.): 25%
Observed response % ([1]; dose 0.6 mg/kg b.w., probit analysis): 14.286%
Linear probit ([1]; dose 0.6 mg/kg b.w.): 4.1699
Linear response % ([1]; dose 0.6 mg/kg b.w.): 20.3258%
Dead ([1]; dose 0.9 mg/kg b.w.): 3
Mortality% ([1]; dose 0.9 mg/kg b.w.): 37.5%
Observed response % ([1]; dose 0.9 mg/kg b.w., probit analysis): 28.571%
Linear probit ([1]; dose 0.9 mg/kg b.w.): 4.5
Linear response % ([1]; dose 0.9 mg/kg b.w.): 30.855%
Dead ([1]; dose 1.1 mg/kg b.w.): 3
Mortality% ([1]; dose 1.1 mg/kg b.w.): 37.5%
Observed response % ([1]; dose 1.1 mg/kg b.w., probit analysis): 28.571%
Linear probit ([1]; dose 1.1 mg/kg b.w.): 4.6635
Linear response % ([1]; dose 1.1 mg/kg b.w.): 36.8278%
Dead ([1]; dose 1.2 mg/kg b.w.): 4
Mortality% ([1]; dose 1.2 mg/kg b.w.): 50%
Observed response % ([1]; dose 1.2 mg/kg b.w., probit analysis): 42.857%
Linear probit ([1]; dose 1.2 mg/kg b.w.): 4.7344
Linear response % ([1]; dose 1.2 mg/kg b.w.): 39.5276%
Dead ([1]; dose 1.4 mg/kg b.w.): 4
Mortality% ([1]; dose 1.4 mg/kg b.w.): 50%
Observed response % ([1]; dose 1.4 mg/kg b.w., probit analysis): 42.857%
Linear probit ([1]; dose 1.4 mg/kg b.w.): 4.8599
Linear response % ([1]; dose 1.4 mg/kg b.w.): 44.4304%
Dead ([1]; dose 1.8 mg/kg b.w.): 5
Mortality% ([1]; dose 1.8 mg/kg b.w.): 62.5%
Observed response % ([1]; dose 1.8 mg/kg b.w., probit analysis): 57.143%
Linear probit ([1]; dose 1.8 mg/kg b.w.): 5.0647
Linear response % ([1]; dose 1.8 mg/kg b.w.): 52.578%
Mortality% ([1]; dose 2.2 mg/kg b.w.): 62.5%
Observed response % ([1]; dose 2.2 mg/kg b.w., probit analysis): 57.143%
Linear probit ([1]; dose 2.2 mg/kg b.w.): 5.2281
Linear response % ([1]; dose 2.2 mg/kg b.w.): 59.022%
Dead ([1]; dose 2.8 mg/kg b.w.): 8
Mortality% ([1]; dose 2.8 mg/kg b.w.): 100%
Observed response % ([1]; dose 2.8 mg/kg b.w., probit analysis): 71.429%
Linear probit ([1]; dose 2.8 mg/kg b.w.): 5.4246
Linear response % ([1]; dose 2.8 mg/kg b.w.): 66.4427%
LD25 [1, 2]: 0.7264 mg/kg
LD50 [1, 2]: 1.6626 mg/kg
LD75 [1, 2]: 3.8056 mg/kg
LD90 [1, 2]: 8.0187 mg/kg
LD95 [1, 2]: 12.5257 mg/kg
LD99 [1, 2]: 28.9136 mg/kg
LT25, Time [1, 2]: 2.187 days
LT50, Time [1, 2]: 4.03 days
LT75, Time [1, 2]: 7.426 days
LT90, Time [1, 2]: 12.87 days
LT95, Time [1, 2]: 17.89 days
LT99, Time [1, 2]: 33.17 days
LD50 ([1]; male wild rats, probit analysis software, listed as bromadiolone): 1.6 mg/kg
Observed response % ([1]; time 1 day): 12.5%
Linear probit ([1]; time 1 day): 3.4617
Linear response % ([1]; time 1 day): 6.209%
Observed response % ([1]; time 2 days): 12.5%
Linear probit ([1]; time 2 days): 4.2266
Linear response % ([1]; time 2 days): 21.9652%
Observed response % ([1]; time 3 days): 37.5%
Linear probit ([1]; time 3 days): 4.6741
Linear response % ([1]; time 3 days): 37.2284%
Observed response % ([1]; time 4 days): 50%
Linear probit ([1]; time 4 days): 4.9918
Linear response % ([1]; time 4 days): 49.6729%
Linear probit ([1]; time 5 days): 5.2381
Linear response % ([1]; time 5 days): 59.4089%
Observed response % ([1]; time 7 days): 87.5%
Linear probit ([1]; time 7 days): 5.6093
Linear response % ([1]; time 7 days): 72.8843%
Ca2+ serum, Mean ± SE (male wild rats; control 4.640 ± 0.2943): 13.15 ± 0.9675 mg/dL
RBCs serum, Mean ± SE (male wild rats; control 11.08 ± 0.1956): 8.240 ± 0.5015 M/µl
Hgb serum, Mean ± SE (male wild rats; control 11.92 ± 0.3813): 11.4 ± 0.2358 g/dL
PT (prothrombin time) serum, Mean ± SE (male wild rats; control 21.25 ± 2.212): 37.43 ± 1.329 s
AST serum, Mean ± SE (male wild rats; control 92.37 ± 5.279): 130.8 ± 8.149 U/L
ALT serum, Mean ± SE (male wild rats; control 184.8 ± 4.632): 225.5 ± 1.679 U/L
Cellular infiltration (liver of male wild rats): ++ ((++) Moderate (from 25–50%))
Congested blood vessels (liver of male wild rats): ++ ((++) Moderate (from 25–50%))
Dilated blood sinusoids (liver of male wild rats): + ((+) Slight (< 25%))
Fatty deposition (liver of male wild rats): -
Features of necrosis: Karyolysis (liver of male wild rats): + ((+) Slight (< 25%))
Features of necrosis: Karyorrhexis (liver of male wild rats): + ((+) Slight (< 25%))
Features of necrosis: Pyknosis (liver of male wild rats): ++ ((++) Moderate (from 25–50%))
Hemorrhage (liver of male wild rats): -
Loss of liver architecture (liver of male wild rats): -
Necrotic areas (liver of male wild rats): + ((+) Slight (< 25%))
Thickening of blood vessels (liver of male wild rats): -
Vacuolated cytoplasm (liver of male wild rats): ++ ((++) Moderate (from 25–50%))
